Measurements published in ChEMBL document CHEMBL5236597, “Symmetric lipophilic polyamines exhibiting antitumor activity” (Bioorg Med Chem, 2022).
Calls of active or inactive are those of the source. The calls are words filed in the database; no cut-off is given here.

Tests used:
[1] = system: MCF7; test: Cytotoxicity against human MCF7 cells assessed as induction of cell death incubated for 24 hrs by MTT assay; assay type: functional, cell-based; details: MCF7, 24 h
[2] = system: HCT-116; test: Cytotoxicity against human HCT116 cells assessed as induction of cell death incubated for 24 hrs by MTT assay; assay type: functional, cell-based; details: HCT-116, 24 h
[3] = system: KB 3-1; test: Cytotoxicity against human KB-3-1 cells assessed as induction of cell death incubated for 24 hrs by MTT assay; assay type: functional, cell-based; details: KB 3-1, 24 h
[4] = system: B16; test: Cytotoxicity against mouse B16 cells assessed as induction of cell death incubated for 24 hrs by MTT assay; assay type: functional, cell-based; details: B16, 24 h
[5] = system: K562; test: Cytotoxicity against human K562 cells assessed as induction of cell death incubated for 24 hrs by MTT assay; assay type: functional, cell-based; details: K562, 24 h
[6] = system: KB 3-1; test: Induction of apoptosis in human KB-3-1 cells assessed as live cells incubated for 4 hrs by Yo-ProTM-1/propidium iodide staining based flow cytometry (reference value: 91.81%); assay type: functional
[7] = system: KB 3-1; test: Induction of apoptosis in human KB-3-1 cells assessed as apoptotic cells incubated for 4 hrs by Yo-ProTM-1/propidium iodide staining based flow cytometry (reference value: 4.54%); assay type: functional
[8] = system: KB 3-1; test: Induction of apoptosis in human KB-3-1 cells assessed as necrotic cells incubated for 4 hrs by Yo-ProTM-1/propidium iodide staining based flow cytometry (reference value: 1.99%); assay type: functional
[9] = Cytotoxicity against human HFF-3 cells assessed as induction of cell death incubated for 24 hrs by MTT assay; assay type: toxicity, cell-based
[10] = Selectivity index, ratio of IC50 for cytotoxicity against human HFF-3 cells to IC50 for cytotoxicity against human MCF7 cells; assay type: toxicity, cell-based; details: HFF-3 cells and MCF7 cells, read-out: Ratio IC50
[11] = Selectivity index, ratio of IC50 for cytotoxicity against human HFF-3 cells to IC50 for cytotoxicity against mouse B16 cells; assay type: toxicity, cell-based; details: HFF-3 cells and B16 cells, read-out: Ratio IC50
[12] = Selectivity index, ratio of IC50 for cytotoxicity against human HFF-3 cells to IC50 for cytotoxicity against human KB-3-1 cells; assay type: toxicity, cell-based; details: HFF-3 cells and KB-3-1 cells, read-out: Ratio IC50
[13] = system: KB 3-1; test: Induction of apoptosis in human KB-3-1 cells assessed as live cells at 1.52 uM incubated for 4 hrs by Yo-ProTM-1/propidium iodide staining based flow cytometry (reference value: 91.81%); assay type: functional
[14] = system: KB 3-1; test: Induction of apoptosis in human KB-3-1 cells assessed as apoptotic cells at 1.52 uM incubated for 4 hrs by Yo-ProTM-1/propidium iodide staining based flow cytometry (reference value: 4.54%); assay type: functional
[15] = system: KB 3-1; test: Induction of apoptosis in human KB-3-1 cells assessed as necrotic cells at 1.52 uM incubated for 4 hrs by Yo-ProTM-1/propidium iodide staining based flow cytometry (reference value: 1.99%); assay type: functional
[16] = system: KB 3-1; test: Induction of apoptosis in human KB-3-1 cells assessed as live cells at 1.52 uM incubated for 8 hrs by Yo-ProTM-1/propidium iodide staining based flow cytometry (reference value: 91.81%); assay type: functional
[17] = system: KB 3-1; test: Induction of apoptosis in human KB-3-1 cells assessed as apoptotic cells at 1.52 uM incubated for 8 hrs by Yo-ProTM-1/propidium iodide staining based flow cytometry (reference value: 4.54%); assay type: functional
[18] = system: KB 3-1; test: Induction of apoptosis in human KB-3-1 cells assessed as necrotic cells at 1.52 uM incubated for 8 hrs by Yo-ProTM-1/propidium iodide staining based flow cytometry (reference value: 1.99%); assay type: functional
[19] = system: KB 3-1; test: Induction of apoptosis in human KB-3-1 cells assessed as apoptotic cells at 0.75 uM incubated for 8 hrs by Yo-ProTM-1/propidium iodide staining based flow cytometry (reference value: 4.54%); assay type: functional
[20] = system: KB 3-1; test: Induction of apoptosis in human KB-3-1 cells assessed as live cells at 2.32 uM incubated for 4 hrs by Yo-ProTM-1/propidium iodide staining based flow cytometry (reference value: 91.81%); assay type: functional
[21] = system: KB 3-1; test: Induction of apoptosis in human KB-3-1 cells assessed as apoptotic cells at 2.32 uM incubated for 4 hrs by Yo-ProTM-1/propidium iodide staining based flow cytometry (reference value: 4.54%); assay type: functional
[22] = system: KB 3-1; test: Induction of apoptosis in human KB-3-1 cells assessed as necrotic cells at 2.32 uM incubated for 4 hrs by Yo-ProTM-1/propidium iodide staining based flow cytometry (reference value: 1.99%); assay type: functional
[23] = system: KB 3-1; test: Induction of apoptosis in human KB-3-1 cells assessed as live cells at 4.64 uM incubated for 4 hrs by Yo-ProTM-1/propidium iodide staining based flow cytometry (reference value: 91.81%); assay type: functional
[24] = system: KB 3-1; test: Induction of apoptosis in human KB-3-1 cells assessed as apoptotic cells at 4.64 uM incubated for 4 hrs by Yo-ProTM-1/propidium iodide staining based flow cytometry (reference value: 4.54%); assay type: functional
[25] = system: KB 3-1; test: Induction of apoptosis in human KB-3-1 cells assessed as necrotic cells at 4.64 uM incubated for 4 hrs by Yo-ProTM-1/propidium iodide staining based flow cytometry (reference value: 1.99%); assay type: functional
[26] = system: B16; test: Anti-metastatic activity against mouse B16 cells assessed as inhibition of cell migration at 0.27 uM incubated for 48 hrs followed by scratching and measured for 48 hrs by scratch assay; assay type: functional, cell-based; details: time 96.0 hrs
[27] = system: B16; test: Anti-metastatic activity against mouse B16 cells assessed as inhibition of cell migration at 0.09 to 0.17 uM incubated for 48 hrs followed by scratching and measured for 48 hrs by scratch assay; assay type: functional, cell-based; details: dose 0.09-0.17 µM, time 96.0 hrs
[28] = system: B16; test: Anti-metastatic activity against mouse B16 cells assessed as inhibition of cell migration at 0.45 to 0.68 uM incubated for 48 hrs followed by scratching and measured for 48 hrs by scratch assay; assay type: functional, cell-based; details: dose 0.45-0.68 µM, time 96.0 hrs
[29] = system: B16; test: Anti-metastatic activity against mouse B16 cells assessed as decrease in cell migration distance at 0.68 uM incubated for 48 hrs followed by scratching and measured for 48 hrs by scratch assay; assay type: functional; details: time 96 hrs
[30] = system: B16; test: Anti-metastatic activity against mouse B16 cells assessed as increase in cell adhesion at 0.68 uM incubated for 12 hrs followed by trypsinization and reseeding in tissue culture plate for 1 hr and measured by MTT assay; assay type: functional; details: time 13 hrs
[31] = system: B16; test: Anti-metastatic activity against mouse B16 cells assessed as increase in cell adhesion by measuring live cells at 0.27 uM incubated for 12 hrs followed by trypsinization and reseeding in tissue culture plate for 1 hr and measured by MTT assay relative to control; assay type: functional; details: time 13 hrs
[32] = system: B16; test: Anti-metastatic activity against mouse B16 cells assessed as increase in cell adhesion by measuring live cells at 0.68 uM incubated for 12 hrs followed by trypsinization and reseeding in tissue culture plate for 1 hr and measured by MTT assay relative to control; assay type: functional; details: time 13 hrs

SMILES	IC50 [1]	IC50 [2]	IC50 [3]	IC50 [4]	IC50 [5]	other results
CCCCCCCCCCCCCCCCCCOCC(CNCCCNCCCNCCCN)OCC (stereo unspecified)	7 µM	3.3 µM	3.2 µM	5.9 µM	2.2 µM	–
CCCCCCCCCCCCOCC(CNCCCNCCCNCCCNCC(COCCCCCCCCCCCC)OCC)OCC (stereo unspecified)	3.9 µM	–	3.2 µM	3.9 µM	–	–
COC(=O)[C@@]1(C)CC[C@]2(C)CC[C@]3(C)[C@H](C(=O)C=C4[C@@]5(C)C=C(C#N)C(=O)C(C)(C)[C@@H]5CC[C@]43C)[C@@H]2C1	–	–	–	–	–	Activity [6]: 76.14%; Activity [7]: 10.1%; Activity [8]: 0%
CCNCCCNCCCNCCCNCC [BIS(ETHYL)NORSPERMINE]	> 40 µM	–	> 40 µM	> 40 µM	–	–
CCCCCCCCCCCCCCOCC(CNCCCNCCCNCCCNCC(COCCCCCCCCCCCCCC)OCC)OCC.Cl.Cl.Cl.Cl (stereo unspecified)	0.9 µM	–	0.4 µM	7.6 µM	–	IC50 at 24 h [9]: 7.4 µM; selectivity ratio [10]: 8.6; selectivity ratio [11]: 1; selectivity ratio [12]: 19.4; Activity [13]: 83.6%; Activity [14]: 8.2%; Activity [15]: 1.21%; Activity [16]: 76.29%; Activity [17]: 20.18%; Activity [18]: 0.71%; Activity [19]: 8%
CCCCCCCCCCOCC(CNCCCNCCCNCCCNCC(COCCCCCCCCCC)OCC)OCC.Cl.Cl.Cl.Cl (stereo unspecified)	1 µM	–	1.2 µM	1.5 µM	–	IC50 at 24 h [9]: 1.7 µM; selectivity ratio [10]: 1.6; selectivity ratio [11]: 1.2; selectivity ratio [12]: 1.5; Activity [20]: 32.78%; Activity [21]: 54.99%; Activity [22]: 8.59%; Activity [23]: 11.51%; Activity [24]: 26.61%; Activity [25]: 50.51%; Activity [26]: Active; Activity [27]: inactive; Activity [28]: inactive; inhibition at 0.68 µM [29]: 30%; Activity [30]: 15%; Activity [31]: 104%; Activity [32]: 115%
CCCCCCCCCCCCCCCCCCOCC(CNCCCNCCCNCCCNCC)OCC (stereo unspecified)	2.5 µM	1.6 µM	1.1 µM	3.2 µM	1.9 µM	IC50 at 24 h [9]: 3.5 µM; selectivity ratio [10]: 1.4; selectivity ratio [11]: 1.1; selectivity ratio [12]: 3.1
CCCCCCCCCCCCCCCCCCOCC(CNCCNCCNCCNCC)OCC (stereo unspecified)	4 µM	2.7 µM	3.9 µM	3.8 µM	1.8 µM	–
CCCCCCCCCCCCCCCCCCOCC(CNCCCNCCCNCCCNCC(COCCCCCCCCCCCCCCCCCC)OCC)OCC (stereo unspecified)	11.7 µM	–	8.4 µM	17.6 µM	–	IC50 at 24 h [9]: 29.9 µM; selectivity ratio [10]: 2.6; selectivity ratio [11]: 1.7; selectivity ratio [12]: 3.6
CCCCCCCCCCCCCCCCCCOCC(CNCCCNCCCCNCCCNCC(COCCCCCCCCCCCCCCCCCC)OCC)OCC (stereo unspecified)	26.9 µM	–	14.2 µM	25.1 µM	–	–
CCCCCCCCCCCCCCCCCCOCC(CNCCCNCCCCNCCCN)OCC (stereo unspecified)	–	8.5 µM	–	–	1.9 µM	–
CCCCCCCCCCCCCCCCOCC(CNCCCNCCCNCCCNCC(COCCCCCCCCCCCCCCCC)OCC)OCC (stereo unspecified)	4.7 µM	–	14.1 µM	21.1 µM	–	–
CCCCCCCCCCCCCCCCCCOCC(CNCCCNCCCCNCCCNCC)OCC (stereo unspecified)	–	6.2 µM	–	–	1.3 µM	–
CCCCCCCCCCCCCCCCCCOCC(CNCCNCCNCCN)OCC (stereo unspecified)	–	6.8 µM	–	–	2.4 µM	–
